Experimental data taken from PubChem BioAssay AID248 (DTP/NCI, 2004).
Several values for one entry are separate records, joined by “and”; a condition that tells them apart may be missing. Identical values can stand only once. Toxic doses and inconclusive results are not listed. Cut-off read from the data, not from the text of the source: active = T/C of 150% or more; inactive = T/C below 125%.

Tested on: L1210 leukemia ip in BDF1 mice, survival T/C
Experiment: NCI In Vivo Anticancer Drug Screen. Data for tumor model L1210 Leukemia (intraperitoneal) in B6D2F1 (BDF1) mice
Conditions: endpoint: mean survival time, higher = longer survival
Procedure, shortened: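 Antitumor effect is assessed in tumor-bearing animals. Survival in the compound arm is compared with a vehicle-dosed control arm and expressed as their quotient.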

[1] = dose: 50.0 mg/kg/injection, schedule: Q01DX009 (ip), vehicle: Klucel (hydroxypropylcellulose) (HPC)
[2] = dose: 100.0 mg/kg/injection, schedule: Q01DX009 (ip), vehicle: Klucel (hydroxypropylcellulose) (HPC)
[3] = dose: 200.0 mg/kg/injection, schedule: Q01DX009 (ip), vehicle: Klucel (hydroxypropylcellulose) (HPC)
[4] = dose: 50.0 mg/kg/injection, schedule: Q01DX001 (ip), vehicle: carboxymethylcellulose (CMC)
[5] = dose: 100.0 mg/kg/injection, schedule: Q01DX001 (ip), vehicle: carboxymethylcellulose (CMC)
[6] = dose: 100.0 mg/kg/injection, schedule: Q04DX003 (ip), vehicle: Klucel (hydroxypropylcellulose) (HPC)
[7] = dose: 200.0 mg/kg/injection, schedule: Q01DX001 (ip), vehicle: carboxymethylcellulose (CMC)
[8] = dose: 200.0 mg/kg/injection, schedule: Q04DX003 (ip), vehicle: Klucel (hydroxypropylcellulose) (HPC)
[9] = dose: 400.0 mg/kg/injection, schedule: Q01DX001 (ip), vehicle: carboxymethylcellulose (CMC)
[10] = dose: 400.0 mg/kg/injection, schedule: Q01DX009 (ip), vehicle: Klucel (hydroxypropylcellulose) (HPC)
[11] = dose: 400.0 mg/kg/injection, schedule: Q04DX003 (ip), vehicle: Klucel (hydroxypropylcellulose) (HPC)
[12] = dose: 100.0 mg/kg/injection, schedule: Q01DX001 (ip), vehicle: saline
[13] = dose: 100.0 mg/kg/injection, schedule: Q01DX009 (ip), vehicle: saline with Tween-80
[14] = dose: 100.0 mg/kg/injection, schedule: Q04DX003 (ip), vehicle: saline
[15] = dose: 200.0 mg/kg/injection, schedule: Q01DX009 (ip), vehicle: saline with Tween-80
[16] = dose: 200.0 mg/kg/injection, schedule: Q04DX003 (ip), vehicle: saline
[17] = dose: 400.0 mg/kg/injection, schedule: Q01DX001 (ip), vehicle: saline
[18] = dose: 400.0 mg/kg/injection, schedule: Q01DX009 (ip), vehicle: saline with Tween-80
[19] = dose: 200.0 mg/kg/injection, schedule: Q01DX001 (ip), vehicle: saline
[20] = dose: 100.0 mg/kg/injection, schedule: Q04DX002 (ip), vehicle: saline with Tween-80
[21] = dose: 200.0 mg/kg/injection, schedule: Q04DX002 (ip), vehicle: saline with Tween-80
[22] = dose: 400.0 mg/kg/injection, schedule: Q04DX002 (ip), vehicle: saline with Tween-80
[23] = dose: 12.5 mg/kg/injection, schedule: Q01DX009 (ip), vehicle: saline
[24] = dose: 12.5 mg/kg/injection, schedule: Q04DX003 (ip), vehicle: saline
[25] = dose: 25.0 mg/kg/injection, schedule: Q04DX003 (ip), vehicle: saline
[26] = dose: 50.0 mg/kg/injection, schedule: Q01DX009 (ip), vehicle: saline with Tween-80

Measured: T/C

NP(=O)(CCl)NC12CC3CC(CC(C3)C1)C2 (configuration not stated)
inactive: [1] 86 % of control | [2] 95 % of control | [3] 93 % of control

O=C(O)c1cccc([N+](=O)[O-])c1O
inactive: dose: 12.5 mg/kg/injection, schedule: Q04DX002 (ip), vehicle: saline with Tween-80 95 % of control | dose: 25.0 mg/kg/injection, schedule: Q04DX002 (ip), vehicle: saline with Tween-80 95 % of control | [4] 97 % of control | dose: 50.0 mg/kg/injection, schedule: Q04DX002 (ip), vehicle: saline with Tween-80 100 % of control | [5] 87 % of control | [2] 103 % of control | [6] 93 % of control | [7] 87 % of control | [3] 95 % of control | [8] 90 % of control | [9] 92 % of control | [10] 93 % of control | [11] 96 % of control

CS(=O)(=O)OCCN(CCOS(C)(=O)=O)c1ccc(/C=N/Nc2ccc([N+](=O)[O-])cc2[N+](=O)[O-])cc1
inactive: [12] 92 % of control | [13] 96 % of control | [14] 91 % of control | [15] 91 % of control | [16] 90 % of control | [17] 89 % of control | [18] 93 % of control | dose: 400.0 mg/kg/injection, schedule: Q04DX003 (ip), vehicle: saline 87 % of control

COC(=O)C1OC1c1cc(Cl)cc(Cl)c1OC (configuration not stated)
inactive: [12] 100 % of control | [19] 106 % of control | [17] 101 % of control

CCOC(=O)C(C)C(O)c1ccc(OC)cc1 (configuration not stated)
inactive: [13] 93 % of control | [15] 93 % of control

CCCCCCCCCCN=C(N)N/C(N)=N/S(=O)(=O)c1ccc(OCCC)cc1
inactive: [20] 100 % of control | [21] 110 % of control | [22] 107 % of control

CC1C[N-]CC(C)C1.CC1C[N-]CC(C)C1.[Cl][Pt+2]([Cl])([Cl])[Cl] (configuration not stated)
inactive: [23] 107 % of control | [24] 87 % of control | dose: 25.0 mg/kg/injection, schedule: Q01DX009 (ip), vehicle: saline 102 % of control | [25] 87 % of control | dose: 50.0 mg/kg/injection, schedule: Q04DX003 (ip), vehicle: saline 95 % of control and 106 % of control | [14] 91 % of control

CN(C)P1N(C)CCN1C
inactive: [12] 95 % of control | [19] 106 % of control | [17] 87 % of control

CC(O)C(c1ccccc1)S(C)(=O)=O (configuration not stated)
inactive: [2] 117 % of control | [6] 104 % of control | [3] 96 % of control | [8] 111 % of control | [10] 95 % of control | [11] 94 % of control

O=C(OCC1CC=CC1)C1CC=CC1
inactive: dose: 100.0 mg/kg/injection, schedule: Q04DX003 (ip), vehicle: saline sonified 102 % of control | dose: 200.0 mg/kg/injection, schedule: Q04DX003 (ip), vehicle: saline sonified 96 % of control

CC(=O)c1ccccc1OCC(O)CN1CCN(c2ccccc2)CC1 (configuration not stated)
inactive: dose: 25.0 mg/kg/injection, schedule: Q01DX009 (ip), vehicle: saline with Tween-80 94 % of control | dose: 25.0 mg/kg/injection, schedule: Q04DX003 (ip), vehicle: saline with Tween-80 100 % of control | [26] 101 % of control | dose: 50.0 mg/kg/injection, schedule: Q04DX003 (ip), vehicle: saline with Tween-80 103 % of control | [13] 101 % of control | dose: 100.0 mg/kg/injection, schedule: Q04DX003 (ip), vehicle: saline with Tween-80 97 % of control

O=C1C(OCc2ccccc2)=C(OCc2ccccc2)C(=O)c2ccccc21
inactive: dose: 75.0 mg/kg/injection, schedule: Q01DX001 (ip), vehicle: acetone 91 % of control | dose: 150.0 mg/kg/injection, schedule: Q01DX001 (ip), vehicle: acetone 94 % of control | dose: 300.0 mg/kg/injection, schedule: Q01DX001 (ip), vehicle: acetone 90 % of control

COc1c(NC(=O)c2ccc(C(=O)Nc3cccc([N+](=O)[O-])c3OC)cc2)cccc1[N+](=O)[O-]
inactive: [2] 97 % of control | [3] 100 % of control | [10] 97 % of control

CCOC(=O)c1cnc(SC)nc1Oc1ccccc1
inactive: [13] 101 % of control | [15] 106 % of control | [18] 98 % of control

C=C1C(=O)OC2CC(C)C(C(O)CC(C)O)=CCC12 (configuration not stated)
inactive: dose: 50.0 mg/kg/injection, schedule: Q01DX001 (ip), vehicle: water 95 % of control | dose: 100.0 mg/kg/injection, schedule: Q01DX001 (ip), vehicle: water 95 % of control

COc1ccc(/C=N/NC(=O)c2ccc(Cl)cc2)cc1
inactive: [26] 88 % of control | [13] 105 % of control | [15] 91 % of control

Cc1ccc(Nc2ccc([N+](=O)[O-])cc2[N+](=O)[O-])cc1C
inactive: dose: 50.0 mg/kg/injection, schedule: Q04DX003 (ip), vehicle: Klucel (hydroxypropylcellulose) (HPC) 102 % of control | [2] 108 % of control | [6] 102 % of control | [3] 90 % of control | [8] 98 % of control and 104 % of control | [10] 97 % of control | [11] 89 % of control

COc1ccc(Cl)cc1
inactive: [13] 92 % of control | [15] 90 % of control

CS(C)=O.CS(C)=O.CS(C)=O.[Cl][Rh]([Cl])[Cl]
inactive: dose: 6.25 mg/kg/injection, schedule: Q01DX009 (ip), vehicle: saline 106 % of control | [23] 98 % of control | dose: 15.0 mg/kg/injection, schedule: Q01DX009 (ip), vehicle: saline 107 % of control | dose: 40.0 mg/kg/injection, schedule: Q01DX009 (ip), vehicle: saline 104 % of control | [14] 96 % of control | [16] 89 % of control

[Cu+2].[NH-]C(CCC(N)=O)C(=O)O.[NH-]C(CCC(N)=O)C(=O)O (configuration not stated)
inactive: dose: 6.25 mg/kg/injection, schedule: Q04DX003 (ip), vehicle: saline 96 % of control | [24] 91 % of control | [25] 100 % of control

O=[N+]([O-])c1ccc(Cl)c(OCCCOc2ccc(S(=O)(=O)F)cc2)c1
inactive: dose: 100.0 mg/kg/injection, schedule: Q01DX001 (ip), vehicle: saline with Tween-80 96 % of control | dose: 200.0 mg/kg/injection, schedule: Q01DX001 (ip), vehicle: saline with Tween-80 87 % of control | dose: 400.0 mg/kg/injection, schedule: Q01DX001 (ip), vehicle: saline with Tween-80 90 % of control

O=C1c2ccccc2C(=O)N1CNc1cccc(Cl)c1
inactive: [13] 88 % of control | [20] 102 % of control | [15] 91 % of control | [21] 105 % of control | [22] 97 % of control

O=C(/C=C/c1ccc(Cl)cc1)CCN1CCC2CCC(C2)C1 (configuration not stated)
inactive: [4] 92 % of control | [5] 95 % of control

CCc1ccc([N+](=O)[O-])cc1
inactive: [5] 95 % of control | [7] 103 % of control | [9] 97 % of control

CN(C)c1ccc(CC2Cc3ccccc3C2=O)cc1 (configuration not stated)
inactive: dose: 100.0 mg/kg/injection, schedule: Q01DX009 (ip), vehicle: other 96 % of control | [6] 117 % of control | dose: 200.0 mg/kg/injection, schedule: Q01DX009 (ip), vehicle: other 89 % of control | [8] 103 % of control | dose: 400.0 mg/kg/injection, schedule: Q01DX009 (ip), vehicle: other 91 % of control | [11] 98 % of control

COc1cc(C(=O)CC(O)(C(F)(F)F)C(F)(F)F)cc(OC)c1OC
inactive: [1] 95 % of control | dose: 100.0 mg/kg/injection, schedule: Q01DX001 (ip), vehicle: Klucel (hydroxypropylcellulose) (HPC) 86 % of control | [2] 97 % of control | dose: 200.0 mg/kg/injection, schedule: Q01DX001 (ip), vehicle: Klucel (hydroxypropylcellulose) (HPC) 100 % of control | [3] 98 % of control

CC(C)(CC(=O)O)Cc1ccccc1
inactive: [26] 101 % of control | [13] 93 % of control | [15] 101 % of control

c1ccc(OB(Oc2ccccc2)Oc2ccccc2)cc1
inactive: [12] 95 % of control | [19] 95 % of control | [17] 106 % of control
